Assay [1] relates to A/WSN/33 H1 virus. Also on record: species or system mice. Particulars: mouse, in vivo.
The test system of assay [2] is B/FLA/06 yamagata lineage virus. Also on record: species or system mice. The note with it: mouse, in vivo.

Turning to `CCOC(=O)C1=C[C@@H](OC(CC)CC)[C@H](NC(C)=O)[C@@H](N)C1` [oseltamivir], in assay [1], the “oxygen saturation level (pulse oximetry) Day 6, A/WSN/33” value is “reduced oxygen saturation at similar levels as those treated with an irrelevant control mAb” and the “protection (survival), influenza A infection model” value is “no protection”. For the same molecule, in assay [2], the “oxygen saturation level (pulse oximetry) Day 6, B/FLA/06, avg.” value came to 86% and the “survival rates, influenza B infection” value is on record as 90-100%.

(Values after patent US11524993B2 (priority 2015, dated 2022).)
